Converted amounts (≈) assume the structure as drawn. Where a name gives a salt, the structure may show the parent alone. Read-outs that look alike come from different tables or passages of the source.
Tests used:
Format in all cases: cell-based
[1] = test system: Staphylococcus aureus NRS384 (MRSA); experiment: Broth microdilution MIC, S. aureus NRS384 (MRSA); design: MIC NRS 384 (MRSA): unit not given here; conditions: for MIC: Staphylococcus aureus, read-out: MIC NRS 384 (MRSA)
Outline: (§1)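 Two-fold dilutions from 64 to 0.0625 μg/ml final, 1% DMSO, were inoculated at ~5.0×10^5 cfu/ml in the strain's test medium and kept 20 h at 37 °C in ambient atmosphere. Colonies were grown on MHA, with S. pneumoniae on blood agar under 5% CO2.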

[2] = test system: Staphylococcus aureus ATCC 29213 (MSSA); experiment: Broth microdilution MIC, S. aureus ATCC 29213 (MSSA); conditions: read-out: MIC S. aureus ATCC 29213 (MSSA)
Outline: as §1

[3] = test system: Enterococcus faecalis ATCC 29212; experiment: Broth microdilution MIC, E. faecalis ATCC 29212; conditions: read-out: MIC E. faecalis ATCC 29212
Outline: as §1

[4] = test system: Enterococcus faecium ATCC 700221 (VRE); experiment: Broth microdilution MIC, E. faecium ATCC 700221 (VRE); design: MIC E. faecium ATCC 700221 (VRE): unit: ug/mL; conditions: for MIC: Enterococcus faecium, read-out: MIC E. faecium ATCC 700221 (VRE)
Outline: as §1

[5] = test system: Streptococcus pneumoniae ATCC 49619; experiment: Broth microdilution MIC, S. pneumoniae ATCC 49619; conditions: read-out: MIC S. pneumoniae ATCC 49619
Outline: as §1

[6] = test system: Bacillus subtilis ATCC 6633; experiment: Broth microdilution MIC, B. subtilis ATCC 6633; conditions: read-out: MIC B. subtilis ATCC 6633
Outline: as §1

[7] = test system: Escherichia coli ATCC 25922; experiment: Broth microdilution MIC, E. coli ATCC 25922 (MHIIB w & w/o 4 mM EDTA); conditions: for MIC: Escherichia coli, read-out: MIC E. coli ATCC 25922
Outline: as §1

[8] = with 4 mM EDTA, broth microdilution, 37° C., 20 hours
[9] = S. aureus NRS 384, broth microdilution, 37° C., 20 hours
[10] = broth microdilution, 37° C., 20 hours
[11] = ATCC29212, broth microdilution, 37° C., 20 hours
[12] = ATCC49619, broth microdilution, 37° C., 20 hours
[13] = ATCC6633, broth microdilution, 37° C., 20 hours
[14] = ATCC25922, without EDTA, broth microdilution, 37° C., 20 hours

| Compound | MIC E. coli ATCC 25922 + 4 mM EDTA [7, 8] | MIC [1, 9] | MIC [2, 10] | MIC [3, 11] | MIC [4, 10] | MIC [5, 12] | MIC [6, 13] | MIC [7, 14] | MIC [1, 10] | MIC E. coli ATCC 25922 + 4 mM EDTA ([7]; ATCC25922, 20 h) | MIC ([1]; 20 h) | MIC ([2]; 20 h) | MIC ([3]; ATCC29212, 20 h) | MIC ([4]; 20 h) | MIC ([5]; ATCC49619, 20 h) | MIC ([6]; ATCC6633, 20 h) | MIC ([7]; ATCC25922, 20 h) | MIC NRS 384 (MRSA) [1, 10] | MIC E. faecium ATCC 700221 (VRE) [4, 10] |
| --- | --- | --- | --- | --- | --- | --- | --- | --- | --- | --- | --- | --- | --- | --- | --- | --- | --- | --- | --- |
| COP(=O)(O)OCCOCCn1ncc2nc(NCc3ccc(Cl)c(Cl)c3)[nH]c(=O)c21 [Compound 298, 2-(2-(5-((3,4-Dichlorobenzyl)amino)-7-oxo-6,7-dihydro-1H-pyrazolo[4,3-d]pyrimidin-1-yl)ethoxy)ethyl methyl hydrogen phosphate] | >64 mg/L | – | – | – | – | – | – | – | – | – | > 64 mg/L | > 64 mg/L | > 64 mg/L | > 64 mg/L | > 64 mg/L | > 64 mg/L | > 64 mg/L | – | – |
| Cn1ncc2nc(NCc3ccc4[nH]ccc4c3)[nH]c(=O)c21 [Compound 14, 5-(((1H-indol-5-yl)methyl)amino)-1-methyl-1H-pyrazolo[4,3-d]pyrimidin-7(6H)-one] | >64 mg/L | – | > 64 mg/L | > 64 mg/L | > 64 mg/L | > 64 mg/L | > 64 mg/L | > 64 mg/L | > 64 mg/L | – | – | – | – | – | – | – | – | – | – |
| Cn1ncc2nc(NCc3ccccc3Cl)[nH]c(=O)c21 [Compound 27, 5-((2-Chlorobenzyl)amino)-1-methyl-1H-pyrazolo[4,3-d]pyrimidin-7(6H)-one] | 64 mg/L | – | > 64 mg/L | > 64 mg/L | > 64 mg/L | > 64 mg/L | > 64 mg/L | > 64 mg/L | > 64 mg/L | – | – | – | – | – | – | – | – | – | – |
| O=c1[nH]c(NCc2ccc(Cl)c(Cl)c2)nc2cnn(C3CCN(c4ccncc4)CC3)c12 [Compound 162, 5-((3,4-dichlorobenzyl)amino)-1-(1-(pyridin-4-yl)piperidin-4-yl)-1H-pyrazolo[4,3-d]pyrimidin-7(6H)-one dihydrochloride] | 8 mg/L | – | – | – | – | – | – | – | – | – | – | 4 mg/L | 4 mg/L | – | 2 mg/L | 1 mg/L | > 64 mg/L | 2/4 | 2/2 |
| Cl.O=C(c1ccncc1)N1CCC(n2ncc3nc(NCc4ccc(Cl)c(Cl)c4)[nH]c(=O)c32)CC1 [Compound 252, 5-((3,4-dichlorobenzyl)amino)-1-(1-isonicotinoylpiperidin-4-yl)-1H-pyrazolo[4,3-d]pyrimidin-7(6H)-one hydrochloride] | >64 mg/L | – | 4 mg/L | 4 mg/L | 2 mg/L | 2 mg/L | 1 mg/L | > 64 mg/L | 4 mg/L | – | – | – | – | – | – | – | – | – | – |
| Cc1ccnc(C(=O)N2CCC(n3ncc4nc(NCc5ccc(Cl)c(Cl)c5)[nH]c(=O)c43)CC2)c1.Cl [Compound 264, 5-((3,4-Dichlorobenzyl)amino)-1-(1-(4-methylpicolinoyl)piperidin-4-yl)-1H-pyrazolo[4,3-d]pyrimidin-7(6H)-one hydrochloride] | >64 mg/L | – | 4 mg/L | 4 mg/L | 1 mg/L | 4 mg/L | 1 mg/L | > 64 mg/L | 2 mg/L | – | – | – | – | – | – | – | – | – | – |

More lines, main results first:

| MIC E. coli ATCC 25922 + 4 mM EDTA [7, 8] | MIC [1, 9] | MIC [2, 10] | MIC [3, 11] | MIC [4, 10] | MIC [5, 12] | MIC [6, 13] | MIC [7, 14] | MIC [1, 10] | MIC E. coli ATCC 25922 + 4 mM EDTA ([7]; ATCC25922, 20 h) | Compound | MIC ([1]; 20 h) | MIC ([2]; 20 h) | MIC ([3]; ATCC29212, 20 h) | MIC ([4]; 20 h) | MIC ([5]; ATCC49619, 20 h) | MIC ([6]; ATCC6633, 20 h) | MIC ([7]; ATCC25922, 20 h) | MIC NRS 384 (MRSA) [1, 10] | MIC E. faecium ATCC 700221 (VRE) [4, 10] |
| --- | --- | --- | --- | --- | --- | --- | --- | --- | --- | --- | --- | --- | --- | --- | --- | --- | --- | --- | --- |
| >64 mg/L | 16 mg/L (≈ 42.2 µM) | 16 mg/L (≈ 42.2 µM) | 16 mg/L (≈ 42.2 µM) | 16 mg/L (≈ 42.2 µM) | 32 mg/L (≈ 84.4 µM) | 8 mg/L (≈ 21.1 µM) | > 64 mg/L | – | – | Cc1cc(CNc2nc3c(F)nn(CCOCCO)c3c(=O)[nH]2)ccc1F [Compound 311, 3-Fluoro-5-((4-fluoro-3-methylbenzyl)amino)-1-(2-(2-hydroxyethoxy)ethyl)-1H-pyrazolo[4,3-d]pyrimidin-7(6H)-one] | – | – | – | – | – | – | – | – | – |
| >64 mg/L | – | 4 mg/L (≈ 9.13 µM) | 8 mg/L (≈ 18.3 µM) | – | 4 mg/L (≈ 9.13 µM) | 2 mg/L (≈ 4.56 µM) | > 64 mg/L | – | – | O=c1[nH]c(NCc2ccc(Cl)c(Cl)c2)nc2cnn(CCOC3CCOCC3)c12 [Compound 108, 5-((3,4-Dichlorobenzyl)amino)-1-(2-((tetrahydro-2H-pyran-4-yl)oxy)ethyl)-1H-pyrazolo[4,3-d]pyrimidin-7(6H)-one] | – | – | – | – | – | – | – | 8/4 | 4/2 |
| – | > 64 mg/L | > 64 mg/L | > 64 mg/L | 16 mg/L | 16 mg/L | 64 mg/L | > 64 mg/L | – | >64 mg/L | N.N.O=c1[nH]c(NCc2ccc(Cl)c(Cl)c2)nc2cnn(CCOCCOCOP(=O)(O)O)c12 [Compound 299, ammonium (2-(2-(5-((3,4-dichlorobenzyl)amino)-7-oxo-6,7-dihydro-1H-pyrazolo[4,3-d]pyrimidin-1-yl)ethoxy)ethoxy)methyl phosphate] | – | – | – | – | – | – | – | – | – |
| >64 mg/L | – | 32 mg/L (≈ 75.4 µM) | 32 mg/L (≈ 75.4 µM) | 16 mg/L (≈ 37.7 µM) | 8 mg/L (≈ 18.9 µM) | 32 mg/L (≈ 75.4 µM) | > 64 mg/L | 32 mg/L (≈ 75.4 µM) | – | CC(CCCn1ncc2nc(NCc3ccc(Cl)c(Cl)c3)[nH]c(=O)c21)C(=O)O (stereo not shown) [Compound 202, 5-(5-((3,4-dichlorobenzyl)amino)-7-oxo-6,7-dihydro-1H-pyrazolo[4,3-d]pyrimidin-1-yl)-2-methylpentanoic acid] | – | – | – | – | – | – | – | – | – |
| >64 mg/L | – | 2 mg/L (≈ 4.87 µM) | 4 mg/L (≈ 9.75 µM) | 2 mg/L (≈ 4.87 µM) | 4 mg/L (≈ 9.75 µM) | 1 mg/L (≈ 2.44 µM) | > 64 mg/L | 2 mg/L (≈ 4.87 µM) | – | COCCCCCn1ncc2nc(NCc3ccc(Cl)c(Cl)c3)[nH]c(=O)c21 [Compound 131, 5-((3,4-Dichlorobenzyl)amino)-1-(5-methoxypentyl)-1H-pyrazolo[4,3-d]pyrimidin-7(6H)-one] | – | – | – | – | – | – | – | – | – |

From patent publication US10723741B1, “DNA polymerase IIIC inhibitors and use thereof” (Acurx Pharmaceuticals, LLC, priority 2018, dated 2020)
